Experimental findings from patent US12559513B2, “Aromatic glycoside and method for producing the glycoside” (CAROTENOID-PRODUCTION TECHNOLOGY CORPORATION (CaroProTech), priority 2022, dated 2026) are described below.

Test [1] relates to mouse preadipocyte 3T3-L1. The experiment in a line: Differentiation-inducing test of mouse preadipocyte 3T3-L1 (Oil Red O staining). It counts as cell-based. Conditions: 3T3-L1 cells, differentiation cocktail with insulin for 6 days. From the text:
Mouse preadipocyte 3T3-L1 is used for screening of activities for lipid metabolism improvement and anti-diabetes, since 3T3-L1 is induced to the differentiation of small adipocyte under proper conditions. This differentiated fat cell produces lipid bodies that can be stained with Oil Red O. PPAR (Peroxisome Proliferator-Activated Receptor) belongs to nuclear receptor superfamily. PPARγ is importantly related to differentiation of fat cells, e.g., activated PPARγ promotes differentiation from preadipocyte to adipocyte. Furthermore, PPARγ promotes apoptosis of large fat cells. Compounds activating PPARγ (PPARγ agonists) improve insulin resistance by inducing apoptosis of large fat cells that are willing to produce TNF-α and free fatty acids, reluctant to import sugars, and induce insulin resistance. PPARγ agonists further reduce blood glucose levels, and exert anti-diabetes activity by inducing differentiation to small fat cells that are reluctant to produce TNF-α and free fatty acids, willing to import glucose in blood, and improve glucose metabolism. Currently, PPARγ agonists such as rosiglitazone (thiazolidine) are used clinically to treat patients with type-2 diabetes mellitus.
In the present EXAMPLE, we carried out to examine whether aromatic compound glycosides can promote differentiation to small fat cells, using mouse 3T3-L1 preadipocyte.
Thus, we examined the PPARγ agonistic activities of compounds 3, 4, 20, and 21, which were selected as the representatives.
The 3T3-L1 cell line was purchased from Japanese Collection of Research Bioresources Cell Bank (JCRB, Osaka, Japan). The 3T3-L1 cells were cultured in DMEM with 10% fetal calf serum (FCS, Sigma Aldrich, St Lous, USA) and antibiotics ([…]). The cells were seeded in collagen coated 12-well plates at 10,000 cells/well (1 mL) and grown to confluence for 2 days. The differentiation procedure was initiated 2 days after cells reached confluence by changing the medium to the differentiation cocktail ([…] in DMEM containing 10% FBS and antibiotics) with or without various concentrations of test compounds (positive control, thiazolidine; four aromatic compound glycosite) dissolved in DMSO (10^3-10^4 times dilutions of the stocks were used). Thereafter, the cells were grown in the differentiation cocktail for 6 days.
Then, Oil Red O (ORO) staining was performed to evaluate the ratio of the differentiated 3T3-L1 cells. […] ORO was then extracted from fixed cells with 100% isopropanol (1 mL), and OD500 values of isopropanol solution, which reflect the ORO amount imported into the cells (=the lipid (body) amount of the differentiated cells), were measured by 96-well microplate reader. […]

The subject of the next test is rat brain homogenate. The test is described as follows: Peroxidation-inhibiting test of rat brain lipids (rat brain homogenate, TBA method). The test is classed as biochemical. Conditions: for IC50: 1 hour at 37° C., malondialdehyde by A532, read-out: IC50 (50% inhibition concentration of rat brain lipid-peroxidation). How it is done:
The lipid peroxidation-inhibiting assay with rat brain homogenate is an experimental system for evaluating damages of biological system caused by the generation of ROS (Reactive Oxygen Species). It is because the rat brain is an organ that is easily oxidized by ROS. Using this system, we evaluated antioxidative activity of compounds 1-5.
Using rat brain homogenate, we examined lipid peroxidation-inhibiting activities of the test compounds. It was performed by incubating rat brain homogenate to proceed with lipid peroxidation reactions, with each compound and with no compound (as the control), by measuring the amounts of consequently generated malondialdehyde by absorbance at 532 nm in the TBA method, and by comparing the amounts of the malondialdehyde products between them.
We preincubated IWAKI disposable test tube ([…]×100 mm) that contained 0.6 mL of 100 mM phosphate buffer (pH 7.4), 0.05 mL of each test sample-including solution, 0.1 mL of 1 mM ascorbic acid, and 0.05 mL of distilled water at 37° C. for 5 min. And 0.2 mL of 2.5% (w/v) rat brain homogenate was added to the test tube, and incubated for 1 hour at 37° C. with shaking (150 rpm). Then, 1 mL of 0.2 N HCl solution including 20% (W/V) trichloroacetic acid and 0.5% (W/V) 2-thiobarbituric acid was added to the above test tube to stop the reaction. Next, this test tube containing each reaction solution was boiled for 30 min at 100° C. to produce color. After chilled on ice, each solution from the test tube was centrifuged with 3,000 rpm for 10 min, and the absorbance of each supernatant was measured at 532 nm (A532).
The lipid peroxidation-inhibiting ratio (%) of each extracted solution (containing each flavonoid glycoside as a test compound (T)) was calculated using the following Formula 1. (1−[T−B]/[C−B])′100. Formula 1
T (test), C (control), and B (blank) are A532 of a test compound with the rat brain homogenate, the control (no compound (instead ethanol) with the homogenate), and the blank control (no compound (instead ethanol) without the homogenate (instead phosphate buffer)), respectively. The lipid peroxidation-inhibiting activity was determined as the IC50 value, representing the concentration at which 50% inhibition was observed.
(Peroxidation-Inhibiting Test of Rat Brain Lipids)

Molecules are shown by their SMILES.

In the case of `O=C(/C=C/c1ccc(O)c(O)c1)Oc1ccc(-c2oc3cc(O[C@@H]4OC(C(=O)O)[C@@H](O)C(O)C4O)cc(O)c3c(=O)c2O[C@@H]2OC(CO)[C@@H](O)C(O)C2O[C@@H]2OC(CO)[C@@H](O)C(O)C2O)cc1` (stereo partly shown) [Compound 21], the “activity for differentiation induction to small fat cells (adipose)” value (“activity for differentiation induction” below) in test [1] is “strong activity for differentiation induction to small fat cells”. In the test with rat brain homogenate, the “lipid peroxidation-inhibiting activity (in words)” value was “possess peroxidation-inhibiting activity” and the IC50 was determined as 23 µM. Taken in the same sequence, the figures for `O=C(/C=C/c1ccc(O)c(O)c1)Oc1cc(-c2oc3cc(O[C@@H]4OC(C(=O)O)[C@@H](O)C(O)C4O)cc(O)c3c(=O)c2O[C@@H]2OC(CO)[C@@H](O)C(O)C2O[C@@H]2OC(CO)[C@@H](O)C(O)C2O)ccc1O` (stereo partly shown) [Compound 20] were “strong activity for differentiation induction to small fat cells”, “possess peroxidation-inhibiting activity” and 1.5 µM. Consider `O=C(/C=C/c1ccc(O)c(O)c1)Oc1cc(-c2oc3cc(O)cc(O)c3c(=O)c2O[C@@H]2OC(CO)[C@@H](O)[C@H](O)C2O[C@@H]2OC(CO)[C@@H](O)[C@H](O)C2O)ccc1O` (stereo partly shown) [Compound 4], for which, in test [1], the “activity for differentiation induction” value is “strong activity for differentiation induction to small fat cells”. Also, in the test with rat brain homogenate, the IC50 was found to be 1.1 µM. As to `CC1OC(Oc2c(-c3ccc(O)c(OC(=O)/C=C/c4ccc(O)c(O)c4)c3)oc3cc(O[C@@H]4OC(CO)[C@@H](O)[C@H](O)C4O)cc(O)c3c2=O)C(O[C@@H]2OC(CO)[C@@H](O)[C@H](O)C2O)C(O)C1O` (stereo partly shown) [Compound 5], the IC50 in the test on rat brain homogenate was determined as 1.5 µM. The same measure, in the same setting: next, `CC1OC(Oc2cc(O)c3c(=O)c(O[C@@H]4OC(CO)[C@@H](O)C(O)C4O[C@@H]4OC(CO)[C@@H](O)C(O)C4O)c(-c4ccc(OC(=O)/C=C/c5ccc(O)c(O)c5)cc4)oc3c2)C(O)C(O)C1O` (stereo partly shown) [Compound 2]: 15 µM; `CC1OC(Oc2cc(O)c3c(=O)c(O[C@@H]4OC(CO)[C@@H](O)C(O)C4O[C@@H]4OC(CO)[C@@H](O)C(O)C4O)c(-c4ccc(O)c(OC(=O)/C=C/c5ccc(O)c(O)c5)c4)oc3c2)C(O)C(O)C1O` (stereo partly shown) [Compound 1]: 1.7 µM.

On to `CC1OC(Oc2cc(O)c3c(=O)c(OC4OC(C)C(O)C(O)C4O[C@@H]4OC(CO)[C@@H](O)[C@H](O)C4O)c(-c4ccc(O)c(OC(=O)/C=C/c5ccc(O)c(O)c5)c4)oc3c2)C(O)C(O)C1O` (stereo partly shown) [Compound 3], for which, in test [1], the “activity for differentiation induction” value was “strong activity for differentiation induction to small fat cells”. The IC50 with rat brain homogenate is 1.4 µM.
